Results: a melting point compilation (Tetko et al.)

Structure (SMILES)	melting point [°C]
O=C(O)/C=C/c1ccccn1	201 to 203
CN(C)C(C(=O)O)c1cccnc1 (configuration not stated)	184 to 186
CC1CN(C(=O)CCl)CC(C)O1 (configuration not stated)	61 to 63
O=C(NC(Cc1c[nH]cn1)C(=O)O)C1CCCCC1 (configuration not stated)	127 to 129
Cc1c(NC(=O)C(C)Sc2nnc(N)s2)c(=O)n(-c2ccccc2)n1C (configuration not stated)	143 to 147
COCCNc1ccc([N+](=O)[O-])cc1C(=O)O	204 to 206
CC(C)Nc1ccc(C#N)cn1	99 to 101
N#Cc1cc(Br)cs1	47 to 49
CCCN1CCc2c(sc(N)c2C(N)=O)C1	139 to 141
O=C(Nc1ccc(O)cc1)C1CC1	212 to 214
ClCc1coc(-c2ccccc2)n1	51 to 55
Cc1nc(NN)c2c3c(sc2n1)CCC3	182 to 184
O=C(O)CCc1cc(Br)cs1	76 to 78
O=C(O)c1cncs1	169 to 171
O=C(O)c1ccc2nncn2c1	315 to 317
O=C1CCC(C(=O)O)CC1	62 to 64
Cn1cc(C#N)cc1C(=O)C(Cl)(Cl)Cl	146 to 148
Nc1cc(-c2ccncc2)n[nH]1	194 to 196
Cc1n[nH]c2cc(N)ccc12	189 to 191
NC(=NO)c1ccc(N2CCC(O)CC2)cc1	169 to 171
COc1ccc(OC)c(C(C)NC(=O)CCl)c1 (configuration not stated)	103 to 105
O=C1Cc2ncccc2N1	189 to 191
CC(C)C1CNC(=O)C1 (configuration not stated)	98 to 100
CC(C)c1n[nH]c(C(=O)O)c1Br	195 to 197

Structure (SMILES)	melting point [°C]
COC(=O)c1cc(S(=O)(=O)N2CCOCC2)ccc1Cl	74 to 76
NC(=O)c1nn(CC(=O)O)c(=O)c2ccccc12	220 to 222
O=C(O)Cc1csc(-c2ccoc2)n1	128 to 130
CCCn1c(C)cc(/C=C(\C#N)C(=O)O)c1C	199 to 201
NS(=O)(=O)c1cc(C(=O)O)cc2c1CCCC2	275 to 277
O=S(=O)(Cl)c1c[nH]cn1	164 to 166
C#Cc1cccc(NCC(=O)NC)c1	127 to 129
Cc1ncc(CN2CCNCC2)s1	79 to 81
OCc1nccc(Cl)c1Cl	59 to 61
O=C(CCl)NC1CCCCNC1=O (configuration not stated)	196 to 198
N#CCc1nc(-c2ccccc2)n[nH]1	165 to 167
O=c1[nH]c(-c2ccc3c(c2)OCCO3)cs1	229 to 231
N#CCC(=O)N1CCS(=O)(=O)CC1	157 to 159
NCC(CCC(=O)O)C(F)(F)F (configuration not stated)	155 to 157
COC(=O)c1cc(NC(=O)C(C)Cl)cc(C(=O)OC)c1 (configuration not stated)	126 to 128
CCOC(=O)c1c(CCCO)cnc2cc(C)nn12	76 to 78
CCCn1c(S)nc2cc(S(N)(=O)=O)ccc21	190 to 194
CC(C)COC(=O)Nc1cccc(N)c1	92 to 94
CC(Cl)C(=O)c1ccc(NS(C)(=O)=O)cc1 (configuration not stated)	189 to 192
O=C(O)C1C2C=CC(C2)C1C(=O)N1CCN(CCO)CC1 (configuration not stated)	192 to 194
CC(C)C(Br)C(=O)NCC1CCCO1 (configuration not stated)	53 to 55
CC(C)c1nnc(C(C)C)[nH]1	147 to 149
COc1ccc(C(=O)O)cc1S(=O)(=O)N1CCCc2ccccc21	211 to 213
Nc1cnc(Br)c(Br)c1	106 to 108

Structure (SMILES)	melting point [°C]
O=C(O)Cc1csc(N2CCCNC2=O)n1	184 to 186
O=C(O)CC(O)(c1ccccc1)C1CC1 (configuration not stated)	105 to 107
CN(C)C(=O)Sc1cnc2nc(C#N)c(C#N)n2c1	180 to 182
Cc1cc(Br)cc(C)c1S(=O)(=O)Cl	49 to 51
COC(=O)c1ccc(N)c([N+](=O)[O-])c1	201 to 203
N#Cc1c(CCCN)n[nH]c1N	169 to 171
NS(=O)(=O)c1ccc2c(c1)CC(=O)N2	252 to 254
CC(=O)CC(=O)Nc1ccc(Br)cc1	137 to 139
NC(=O)c1cc(C(F)(F)F)ccc1N1CCCC1	207 to 209
O=C(Nc1sccc1C(=O)O)c1ccco1	196 to 198
Cn1cc(C(=O)O)c(=O)n(C)c1=O	189 to 191
COc1ccc(C2C(CO)CC(=O)N2C)cc1 (configuration not stated)	82 to 84
CC(=O)Nc1cccc(NC(=O)CCl)c1	173 to 175
OCc1cc2ccc(Br)cc2[nH]1	115 to 117
CCNC(=O)CCCl	64 to 66
O=C(CCOc1ccccc1)NO	138 to 140
Cc1cccc(NC(=O)[C@@H]2CCCN2)n1	62 to 64
N#CCCn1cc(C(=O)O)c(-c2cccc([N+](=O)[O-])c2)n1	242 to 244
Nc1ccnc(OCC(F)(F)F)c1	39 to 41
N#Cc1ccccc1S(=O)(=O)N1CCN(C(=O)CCl)CC1	206 to 208
O=C(O)c1cccc(CN2CCCC2)c1	196 to 198
CN1CCCC(N(C)C(=O)c2ccc(N)cc2)C1 (configuration not stated)	116 to 118
Cc1ccc(-c2nn(Cc3ccccc3)cc2C(=O)O)cc1C	155 to 157

Continued, values first:

melting point [°C]	Structure (SMILES)
38 to 40	Cc1cc2c(Cl)nccc2o1
308 to 310	O=Cc1cc2ccccc2nc1O
120 to 124	O=C1C=CC(=O)N1c1ccc2ccccc2c1
57 to 59	O=[N+]([O-])c1ccc(F)cc1S(=O)(=O)Cl
85 to 87	O=C(Cl)c1cc(Cl)nc2ccccc12
185 to 187	O=C(O)c1ccc(COc2ccccc2Br)cc1
311 to 313	Nc1ccc(-c2nnc3n2CCC3)cc1
99 to 101	Cc1ccc(NS(=O)(=O)c2ccc(Cl)c([N+](=O)[O-])c2)c(C)c1
173 to 175	COc1ccc(Cn2c(N)nc3ccccc32)cn1
104 to 106	CNCCCc1cc(-c2ccc(F)cc2)n[nH]1
239 to 241	N#Cc1c(Cl)cccc1Oc1cccc(C(=O)O)c1
132 to 134	O=C(CCl)Nc1c(F)cc(F)cc1Br
139 to 141	Cc1ccc(Cc2cnc(N)s2)cc1F
88 to 90	CS(=O)c1ccc(C=O)cc1 (configuration not stated)
95 to 97	O=C(Nc1ccccc1CO)c1ccco1
159 to 161	O=S(=O)(Nc1ccc(F)c(F)c1)c1ccc(Cl)nc1

melting point [°C]	Structure (SMILES)
157 to 159	COC(=O)c1ccoc1CSc1ccccc1C(=O)O
148 to 150	CC(C)(C)c1ccc(-c2cc(N)on2)cc1
101 to 103	O=Cc1ccc(-c2cccc(F)c2)s1
51 to 53	O=Cc1ccc(-c2c(F)cccc2F)o1
181 to 183	CN1CC(=O)Nc2cc(Cl)ccc21
163 to 165	Cc1nc(NN)c2cc(-c3ccccc3)sc2n1
237 to 239	Fc1ccc(-n2c(S)nc3ccccc32)cc1
56 to 58	NCc1ccn(-c2ccc(F)cc2)n1
169 to 171	CCCc1nn(-c2ccccc2F)c(Cl)c1C(=O)O
107 to 109	Oc1ccc(-n2cccn2)cc1
110 to 112	Cc1cccc(-c2nc(CC(=O)O)cs2)c1
81 to 83	CCC(O)c1ccc(O)cc1 (configuration not stated)
211 to 213	O=C(O)c1ccc(Cl)c(NS(=O)(=O)c2ccc(F)cc2)c1
130 to 132	O=[N+]([O-])c1cc2nc(Cl)ccc2cc1F
89 to 91	O=C(O)C1CC1c1ccc(F)c(F)c1 (configuration not stated)
